Experimental data published in article PMC7156724, “Potent BRD4 inhibitor suppresses cancer cell-macrophage interaction” (Nature Communications, 2020).
Values joined by “and” are separate entries in the source; they are usually repeats but may differ in a detail not shown here. Identical values can stand only once.

Key:
[1] = tested on: TAMs (CD11b+F4/80+ cells) in A375 melanoma model; assay: FACS analysis of TAMs in A375 tumors; format: in vivo, mouse; details: day 21, FACS
Method: Flow cytometry analyses were performed using antibodies listed in Supplementary Table 8. For cell surface markers, mouse TAM suspensions were stained with mouse APC-CD45, FITC-CD11b, PE-F4/80 or APC-F4/80, CD68, and PE-CD206 antibodies for 15 min on ice. For Ki67 staining, cells were fixed in 4% paraformaldehyde and stained with FITC-Ki67. Isotype matching antibody served as the negative control. Flow cytometry was performed on a FACSCalibur (BD Biosciences). Data were analyzed with BD CellQuest Pro software version 5.1.
(a,b) Tumors from A375 tumor bearing mice in Figure 3e were harvested at day 21 and stained with anti-CD45, CD11b, F4/80, CD68 and Ki67 followed by FACS analysis. Shown are representative FACS plots (a ) and quantification of the percentage of CD11b+F4/80+ and CD11b+F4/80+CD68+Ki67+ cells (b). Data are presented as mean ± SEM from 5 different mice. p values were calculated using two-tailed, unpaired t tests.
**, p<0.01; ***, p<0.001. (c,d) Tumors from mice described in Figure 4e were harvested at day 45 and stained […]

[2] = Metabolic stability assay, rat liver microsomes; details: for Remaining in rat liver microsomes (Sup Fig.6b): in % (unit assumed)
Method: 7. Metabolic stability assay. The metabolic profile of NHWD-870 was determined using mouse, rat, dog, monkey, and human liver microsomes using the protocols […]
No. Compound ID Exat Mass Stock Conc.
1) 100 mM potassium phosphate buffer, PH7.4; 2) 10mM MgCI2
1) Intermediate solution: Dilute 5 μL of compound or control from stock solution (10 mM) with 45 uL DMSO,then mixed with 450 μL 1:1 Methanol/Water (Conc.: 10 0 […]
2) Working solution: Dilute 50 μL from intermediate solution with 450 μL 100 mM potassium phosphate buffer (Conc.: 10 μM, 4.5%MeOH)
(3) NADPH regenerating system (final Isocitric dehydrogenase conc.= 1 unit/mL at […]
1) β-Nicotinamide adenine dinucleotide phosphate, Vendor: sigma Cat. No. N0505
2) Isocitric acid, Vendor: Sigma Cat. No. I1252
3) Isocitric dehydrogenase, Vendor: sigma Cat. No. I2002
(4) Liver microsome solution preparation (final concentration o f 0.5 mg protein/mL) […]
Cold ACN including 100 ng/mL Tolbutamide and 100 ng/mL Labetalol as internal […]
1) Add 10 μL compound or control working solution/well to all plates (T0, T5, T10, T20, T30, T60, NCF60) except matrix blank.
2) Dispense 680 μL/well microsome solution to 96-well plate as reserv oir according to […]
plate map. Then add 80 μL/well to every plate by Apricot, incubate the mixture of microsome solution and compound at 37℃ for about 10 min.
3) Add 10 μL 100 mM potassium phosphate buffer/well to NCF60, incubate at 37℃, […]
4) After pre-warming, dispense 90 μL/well NADPH regenerating system to 96-well plate as reservoir according to the plate map. Then add 10 μL/well to every plate by Apricot to start reaction.
5) Incubate at 37℃, start timer 2.
6) Add 300 (μL/well) stop solution (cold in 4℃, including 100 ng/mL Tolbutamide and 100 ng/mL Labetalol) to terminate the reaction.
7) The sampling plates are shaked for approx 10 min.
8) Samples are centrifuged at 4000 rpm for 20 min under 4℃.
9) While centrifuging, load 8×new 96-well plate with 300 μL HPLC water, then transfer 100 μL supernatant, mixed for LC/MS/MS.
Use equation of first order kinetics to calculate t1/2 and Clin t(mic): […]
Equation of first order kinetics: […]

CSF1 protein = assay: ELISA of CSF1 protein in supernatant of human tumor cells (A2780, SKOV3, A375); format: cell-based; details: 10^6 A375 cells, 25 nM, 24 h
Method: A2780 tumor cells were pretreated with 100 nM NHWD-870 and then directly co-cultured with TAMs (A2780:TAMs ratio as 4:1) at the density of 1 × 10^5 total cells in a 12-well. Shown are immunofluorescent staining of Ki67 and CD68 (a) and quantification of Ki67+ and CD68− or CD68+ cells (b). Scale bar is 50 μm. […] A2780 cells (pre-treated with or without 100 nM NHWD-870 for 48 h) were seeded into the top chamber (transwell size: 0.4 μm) and TAMs (Mac, 40,000 cells per 24-well) in medium containing 2% matrigel were seeded into the bottom chamber pre-coated with Matrigel. No NHWD-870 was added to the co-culture. The upper chamber without A2780 cells was used as a control. Shown are schematics of transwell co-culture experiment (c), representative pictures of TAM spheroid (d: black/white), and quantification of spheroid volumes (e). Scale bar is 50 μm. […] Data are presented as mean ± SEM from three independent experiments. g CSF1 protein levels in supernatant of 10^6 ID8, B16, A2780, SKOV3, and A375 cells treated with DMSO or 25 nM NHWD-870 for 24 h, as measured by ELISA. […] Scale bar is 20 μm. i Quantification of CSF1 staining in DMSO or 100 nM NHWD-870 treated A2780 cells. […] Shown are representative immunofluorescent staining of CSF1 (green) and CD68 (red) (j) and quantification of CSF1 staining (k). […]

CSF1 mRNA = assay: RT-qPCR of CSF1 mRNA in human ovarian cancer and melanoma cells; format: cell-based; details: 50 nM, 48 h

SMILES: Cc1nnn(C)c1-c1cnc2c3c4cnn(C)c4ccc3n([C@H](c3ccccc3)C3CCOCC3)c2c1 [NHWD-870]
- number of TAMs (CD11b+F4/80+ cells) or proliferating TAMs [1]: decreased the number of TAMs
- Remaining (T=60min) ([2]; rat liver microsomes): 22.3%
- Remaining (*NCF=60min) ([2]; rat liver microsomes, no cofactor): 76.0%
- CLint scaled at 1 µM ([2]; rat, liver microsomes, pH 7.4): 92 mL/min/kg
- half-life at 1 µM ([2]; rat, liver microsomes, pH 7.4): 27.1 min
- microsomal CLint at 1 µM ([2]; rat, microsomes, pH 7.4): 51.1 µL/min/mg
- Remaining in rat liver microsomes (Sup Fig.6b) ([2]; time 0): 100
- Remaining in rat liver microsomes (Sup Fig.6b) ([2]; time 5): 91.753
- Remaining in rat liver microsomes (Sup Fig.6b) ([2]; time 10): 75.9
- Remaining in rat liver microsomes (Sup Fig.6b) ([2]; time 20): 52.356
- Remaining in rat liver microsomes (Sup Fig.6b) ([2]; time 30): 42.131
- Remaining in rat liver microsomes (Sup Fig.6b) ([2]; time 60): 22.275
- CSF1 protein levels in supernatant (ELISA) (CSF1 protein): 26 and 36 and 31
- relative CSF1 mRNA level (CSF1 mRNA; 2780 (A2780)): 0.0041 and 0.006 and 0.005
- relative CSF1 mRNA level (CSF1 mRNA; YUAME): 0.0004 and 0.0005 and 0.0003
